Laboratory results as given in patent US4476122A, “Alkyloximes of 7-amino-thiazolyl-acetamido-cephalosporanic acids” (Roussel Uclaf, priority 1976, dated 1984).
Converted amounts (≈) assume the structure as drawn. Where two headings read alike, the source gives them in different places.

Tests used:
[1] = test system: Staphylococcus aureus ATCC 6 538 Pen-Sensitive; test: MIC, liquid medium dilution; format: cell-based
Protocol: (§1) The method used was a dilution of a liquid medium where a series of tubes received the same quantity of a sterile nutritive media and increasing doses of the test compounds were placed therein. Then each tube was seeded with a bacterial strain and was incubated for 24 or 48 hours at 37° C. in an oven. The increasing inhibition was determined by transillumination to determine the minimum inhibiting concentration (MIC in μg/ml) and the results are reported in the following Tables.

[2] = test system: Providencia Du 48; test: MIC, liquid medium dilution; format: cell-based
Protocol: as §1

[3] = test system: Serratia Resistant Gentamicine 2 532; test: MIC, liquid medium dilution; format: cell-based
Protocol: as §1

[4] = test system: Escherichia Coli Resistant Tetracycline ATCC 11 303; test: MIC, liquid medium dilution; format: cell-based; settings: read-out: MIC
Protocol: as §1

[5] = test system: Bacillus subtilis ATCC 6 633; test: MIC, liquid medium dilution; format: cell-based
Protocol: as §1

[6] = test system: Escherichia Coli Sensitive Tetracycline ATCC 9 637; test: MIC, liquid medium dilution; format: cell-based
Protocol: as §1

[7] = test system: Pseudomonas 3 935 Exp. SG; test: MIC, liquid medium dilution; format: cell-based; settings: 3935EXP.SG
Protocol: as §1

[8] = test system: Escherichia Coli Resistant Gentamicine, Tobramycine R 55 123 D; test: MIC, liquid medium dilution; format: cell-based
Protocol: as §1

[9] = test system: Enterobacter cloacae 681; test: MIC, liquid medium dilution; format: cell-based
Protocol: as §1

[10] = test system: Streptococcus faecalis 5 432; test: MIC, liquid medium dilution; format: cell-based
Protocol: as §1

[11] = test system: Klebsiella pneumoniae Exp. 52 145; test: MIC, liquid medium dilution; format: cell-based; settings: read-out: MIC
Protocol: as §1

[12] = test system: Staphylococcus aureus exp. n° 54 146; test: MIC, liquid medium dilution; format: cell-based
Protocol: as §1

[13] = test system: Streptococcus faecalis 99 F 74; test: MIC, liquid medium dilution; format: cell-based; settings: Enterococcus faecalis
Protocol: as §1

[14] = test system: Streptococcus pyogenes A 561; test: MIC, liquid medium dilution; format: cell-based; settings: read-out: MIC
Protocol: as §1

[15] = test system: Proteus vulgaris (indol+) A 232; test: MIC, liquid medium dilution; format: cell-based
Protocol: as §1

[16] = test system: Klebsiella pneumoniae 2 536 Resistant Gentamicine; test: MIC, liquid medium dilution; format: cell-based
Protocol: as §1

[17] = test system: Staphylococcus aureus UC 1 128 Pen-Resistant; test: MIC, liquid medium dilution; format: cell-based
Protocol: as §1

[18] = test system: Escherichia Coli Exp. TO26 B6; test: MIC, liquid medium dilution; format: cell-based
Protocol: as §1

[19] = test system: Salmonella typhimurium 420; test: MIC, liquid medium dilution; format: cell-based; settings: Salmonella enterica
Protocol: as §1

[20] = test system: Proteus mirabilis (indol-) A 235; test: MIC, liquid medium dilution; format: cell-based
Protocol: as §1

[21] = test system: Klebsiella pneumonia 52,145; test: Experimental infection with Klebsiella pneumonia in mice (C); format: in vivo; settings: subcutaneous
Protocol: The activity of the products of Examples 4 and 6 was studied on an experimental infection of Klebsiella pneumonia in mice. Groups of 10 male mice weighing 21 g were infected by an intraperitoneal injection of 0.5 ml of a culture in nutrive media of Klebsiella pneumonia 52,145 diluted by 1/1000 with distilled water. The products were administered subcutaneously 30 minutes, 4, 8, 24 and 32 hours after the injection and the number of dead mice was determined during 10th days.

[22] = test system: Escherichia coli (T) O26 B6; test: Experimental infection with Escherichia coli (T) O26 B6 in mice; format: in vivo; settings: s. c.
Protocol: The products of Example 6 and 10 were studied for their activity against an experimental infection of Escherichia coli in groups of 10 male mice weighing about 22 g. The mice received an intraperitoneal injection of 0.5 ml of a 24 hour old culture in a nutritive media of Escherichia coli (T) O26 B6 of the Pasteur Institute diluted 1/5.5 with distilled water. The test product was administered subcutaneously or orally 1 hour and 5 and 24 hours after the infection and the number of dead was determined during 8 days.

[23] = Enterobacter cloacae, 681, 48 h
[24] = Enterococcus faecalis, 5432, 24 h
[25] = Enterococcus faecalis, 5432, 48 h

Question: Which results are given for `CO/N=C(\C(=O)NC1C(=O)N2C(C(=O)O)=C(CSc3nnnn3C)CS[C@H]12)c1csc(N)n1` (some centres unmarked) [Example 4, 7-[{2-(2-amino-4-thiazolyl)-2-methoxyiminoacetyl}amino]-3-[(1-methyl-tetrazol-5-yl)-thiomethyl]-ceph-3-eme-4-carboxylic acid]?
Answer: MIC ([1]; ATCC6, 24 h, read-out: MIC): 1 µg/mL (≈ 1.95 µM); MIC ([1]; ATCC6, 48 h, read-out: MIC): 1 µg/mL (≈ 1.95 µM); MIC ([2]; DU48, 24 h): 2 µg/mL (≈ 3.91 µM); MIC ([2]; DU48, 48 h): 2 µg/mL (≈ 3.91 µM); MIC ([3]; 24 h, read-out: MIC): 1 µg/mL (≈ 1.95 µM); MIC ([3]; 48 h, read-out: MIC): 1 µg/mL (≈ 1.95 µM); MIC ([4]; ATCC11, 24 h): 0.05 µg/mL (≈ 0.0977 µM); MIC ([4]; ATCC11, 48 h): 0.05 µg/mL (≈ 0.0977 µM); MIC ([5]; ATCC6, 24 h): 2 µg/mL (≈ 3.91 µM); MIC ([5]; ATCC6, 48 h, read-out: MIC): 5 µg/mL (≈ 9.77 µM); MIC ([6]; ATCC9, 24 h): 0.4 µg/mL (≈ 0.782 µM); MIC ([6]; ATCC9, 48 h): 0.4 µg/mL (≈ 0.782 µM); MIC ([7]; 24 h): 20 µg/mL (≈ 39.1 µM); MIC ([7]; 48 h, read-out: MIC): 40 µg/mL (≈ 78.2 µM); MIC ([8]; 24 h): 0.2 µg/mL (≈ 0.391 µM); MIC ([8]; 48 h): 0.2 µg/mL (≈ 0.391 µM); MIC ([9]; Enterobacter cloacae, 681, 24 h): 20 µg/mL (≈ 39.1 µM); MIC [9, 23]: 20 µg/mL (≈ 39.1 µM); MIC [10, 24]: 2 µg/mL (≈ 3.91 µM); MIC [10, 25]: 2 µg/mL (≈ 3.91 µM); MIC ([11]; EXP.52145, 24 h): 0.02 µg/mL (≈ 0.0391 µM); MIC ([11]; EXP.52145, 48 h): 0.02 µg/mL (≈ 0.0391 µM); MIC ([12]; 24 h): 2 µg/mL (≈ 3.91 µM); MIC ([12]; 48 h): 2 µg/mL (≈ 3.91 µM); MIC ([13]; 99F74, 24 h): 2 µg/mL (≈ 3.91 µM); MIC ([13]; 99F74, 48 h, read-out: MIC): 10 µg/mL (≈ 19.5 µM); MIC ([14]; A561, 24 h): ≤ 0.02 µg/mL; MIC ([14]; A561, 48 h): ≤ 0.02 µg/mL; MIC ([15]; 24 h, read-out: MIC): 3 µg/mL (≈ 5.86 µM); MIC ([15]; 48 h): 20 µg/mL (≈ 39.1 µM); MIC ([16]; 24 h): 0.4 µg/mL (≈ 0.782 µM); MIC ([16]; 48 h, read-out: MIC): 0.6 µg/mL (≈ 1.17 µM); MIC ([17]; UC1, 24 h): 2 µg/mL (≈ 3.91 µM); MIC ([17]; UC1, 48 h): 2 µg/mL (≈ 3.91 µM); MIC ([18]; 24 h): 0.2 µg/mL (≈ 0.391 µM); MIC ([18]; 48 h): 0.2 µg/mL (≈ 0.391 µM); MIC ([19]; 24 h): 0.2 µg/mL (≈ 0.391 µM); MIC ([19]; 48 h): 0.2 µg/mL (≈ 0.391 µM); MIC ([20]; 24 h, read-out: MIC): 0.05 µg/mL (≈ 0.0977 µM); MIC ([20]; 48 h, read-out: MIC): 0.05 µg/mL (≈ 0.0977 µM); Mice alive on the 10th day ([21]; 5 × 0,1 mg): 9/10; Mortality after 5 J (number of dead of 10) ([21]; 5 × 0,1 mg): 1; Mice alive on the 10th day ([21]; 5 × 0,25 mg): 10/10

Question: What does the source list for `CO/N=C(\C(=O)NC1C(=O)N2C(C(=O)O)=C(CSC(C)=O)CSC12)c1csc(N)n1` (centres unmarked) [Example 6, 3-acetylthiomethyl-7-[{2-(2-amino-4-thiazolyl)-2-methoxyiminoacetyl}amino]-ceph-3-eme-4-carboxylic acid]?
Answer: MIC ([1]; ATCC6, 24 h): 2 µg/mL (≈ 4.24 µM); MIC ([1]; ATCC6, 48 h): 2 µg/mL (≈ 4.24 µM); MIC ([2]; DU48, 24 h, read-out: MIC): 10 µg/mL (≈ 21.2 µM); MIC ([2]; DU48, 48 h, read-out: MIC): 10 µg/mL (≈ 21.2 µM); MIC ([3]; 24 h): 1 µg/mL (≈ 2.12 µM); MIC ([3]; 48 h): 2 µg/mL (≈ 4.24 µM); MIC ([4]; ATCC11, 24 h): 0.1 µg/mL (≈ 0.212 µM); MIC ([4]; ATCC11, 48 h): 0.1 µg/mL (≈ 0.212 µM); MIC ([5]; ATCC6, 24 h): 1 µg/mL (≈ 2.12 µM); MIC ([5]; ATCC6, 48 h): 2 µg/mL (≈ 4.24 µM); MIC ([6]; ATCC9, 24 h, read-out: MIC): 0.6 µg/mL (≈ 1.27 µM); MIC ([6]; ATCC9, 48 h): 0.6 µg/mL (≈ 1.27 µM); MIC ([8]; 24 h, read-out: MIC): 0.6 µg/mL (≈ 1.27 µM); MIC ([8]; 48 h): 0.6 µg/mL (≈ 1.27 µM); MIC ([9]; Enterobacter cloacae, 681, 24 h, read-out: MIC): 10 µg/mL (≈ 21.2 µM); MIC [9, 23]: 20 µg/mL (≈ 42.4 µM); MIC [10, 24]: 5 µg/mL (≈ 10.6 µM); MIC [10, 25]: 5 µg/mL (≈ 10.6 µM); MIC ([11]; EXP.52145, 24 h): 0.1 µg/mL (≈ 0.212 µM); MIC ([11]; EXP.52145, 48 h): 0.1 µg/mL (≈ 0.212 µM); MIC ([12]; 24 h): 2 µg/mL (≈ 4.24 µM); MIC ([12]; 48 h): 2 µg/mL (≈ 4.24 µM); MIC ([13]; 99F74, 24 h): 5 µg/mL (≈ 10.6 µM); MIC ([13]; 99F74, 48 h): > 40 µg/mL; MIC ([14]; A561, 24 h): ≤ 0.02 µg/mL; MIC ([14]; A561, 48 h): ≤ 0.02 µg/mL; MIC ([15]; 24 h): 5 µg/mL (≈ 10.6 µM); MIC ([15]; 48 h, read-out: MIC): 10 µg/mL (≈ 21.2 µM); MIC ([16]; 24 h): 1 µg/mL (≈ 2.12 µM); MIC ([16]; 48 h): 2 µg/mL (≈ 4.24 µM); MIC ([17]; UC1, 24 h): 5 µg/mL (≈ 10.6 µM); MIC ([17]; UC1, 48 h): 5 µg/mL (≈ 10.6 µM); MIC ([18]; 24 h): 0.4 µg/mL (≈ 0.848 µM); MIC ([18]; 48 h): 0.4 µg/mL (≈ 0.848 µM); MIC ([19]; 24 h): 0.4 µg/mL (≈ 0.848 µM); MIC ([19]; 48 h): 0.4 µg/mL (≈ 0.848 µM); MIC ([20]; 24 h): 0.05 µg/mL (≈ 0.106 µM); MIC ([20]; 48 h, read-out: MIC): 0.1 µg/mL (≈ 0.212 µM); Mice alive on the 10th day ([21]; 5 × 0,5 mg): 10/10; Mice alive on the 10th day ([21]; 5 × 0,25 mg): 10/10; Mice alive on the 10th day ([21]; 5 × 1 mg): 10/10; Mice surviving on the 8th day ([22]; 3 × 0,1 mg): 5/10; Mortality after 5 H 30 (number of dead of 10) ([22]; 3 × 0,1 mg): 1; Mortality after 21 H 30 (number of dead of 10) ([22]; 3 × 0,1 mg): 1; Mortality after 24 H (number of dead of 10) ([22]; 3 × 0,1 mg): 1; Mortality after 47 H (number of dead of 10) ([22]; 3 × 0,1 mg): 2; Mice surviving on the 8th day ([22]; 3 × 0,2 mg): 7/10; Mortality after 21 H 30 (number of dead of 10) ([22]; 3 × 0,2 mg): 1; Mortality after 47 H (number of dead of 10) ([22]; 3 × 0,2 mg): 1; Mortality after 70 H (number of dead of 10) ([22]; 3 × 0,2 mg): 1; Mice surviving on the 8th day ([22]; 3 × 0,3 mg): 10/10; Mice surviving on the 8th day ([22]; 3 × 0,05 mg): 4/10; Mortality after 5 J (number of dead of 10) ([22]; 3 × 0,05 mg): 1; Mortality after 21 H 30 (number of dead of 10) ([22]; 3 × 0,05 mg): 4; Mortality after 54 H (number of dead of 10) ([22]; 3 × 0,05 mg): 1
